System: corneodesmosine
Assay: Desquamating activity: immunodetection of corneodesmosine on varnish strippings of dry skin after incubation with product
Type: biochemical
Settings: 7% by weight in Arlacel/Myrj base, 5 days at 37° C., 70% relative humidity
Experimental: In this test, corneodesmosine is sought by immunodetection after incubation. Corneodesmosine is one of the key markers of desquamation of […]. It is studied on an immunoblot after electrophoresis separation and transfer onto a membrane.
3×3.5 cm rectangles are cut out of varnish strippings performed on the calf area of legs bearing dry skin. They are each treated with 42 mg of product (4 mg/cm^2). Controls and tests are performed in parallel. A blank without product is prepared under the same conditions.
The tests are incubated at 37° C. and 70% relative humidity for 5 days. The controls are stored for 5 days at −20° C. Thus, 5 tests and 5 controls are obtained.
For each of the samples, acetone powders are prepared and weighed out. The proteins are extracted with 100 μl/mg of whole Laemmli buffer. They are assayed according to the Bradford method. The protein content of each sample is adjusted and allows a direct comparison of the various samples. The proteins are separated by SDS-Page electrophoresis on 12% acrylamide gel.
After transferring the proteins onto a PVDF membrane, the immunodetection is performed with the anticorneodesmosine antibody G3619 (Guy Serre) at 1/12500 according to a standard western blot technique. Revelation is performed by chemiluminescence. The bands detected by the Fluor Smax machine (Biorad) are quantified with the quantity-one software (Biorad).

| SMILES | degradation of corneodesmosine (result in words) |
| --- | --- |
| CC(O)C[C@@H]1OC[C@@H](O)[C@H](O)[C@H]1O (stereo partly drawn) [C-β-D-xylopyranoside-2-hydroxypropane] | positive effect |
| OCC(O)CO [Glycerol] | substantial degradation of corneodesmosine |

Source: patent US9421157B2, “Use of C-glycoside derivatives as pro-desquamating active agents” (L'OREAL, priority 2006, dated 2016)
